Data on 25 compounds can be found in US8614201B2 (Janssen Pharmaceutica NV, priority 2009, dated 2013).

As a reminder, the IC50 is the concentration that gives 50% inhibition.

A value given as a limit tells only on which side of the number the result lay.

Sequence of Human TRPA1 (O75762 whole entry): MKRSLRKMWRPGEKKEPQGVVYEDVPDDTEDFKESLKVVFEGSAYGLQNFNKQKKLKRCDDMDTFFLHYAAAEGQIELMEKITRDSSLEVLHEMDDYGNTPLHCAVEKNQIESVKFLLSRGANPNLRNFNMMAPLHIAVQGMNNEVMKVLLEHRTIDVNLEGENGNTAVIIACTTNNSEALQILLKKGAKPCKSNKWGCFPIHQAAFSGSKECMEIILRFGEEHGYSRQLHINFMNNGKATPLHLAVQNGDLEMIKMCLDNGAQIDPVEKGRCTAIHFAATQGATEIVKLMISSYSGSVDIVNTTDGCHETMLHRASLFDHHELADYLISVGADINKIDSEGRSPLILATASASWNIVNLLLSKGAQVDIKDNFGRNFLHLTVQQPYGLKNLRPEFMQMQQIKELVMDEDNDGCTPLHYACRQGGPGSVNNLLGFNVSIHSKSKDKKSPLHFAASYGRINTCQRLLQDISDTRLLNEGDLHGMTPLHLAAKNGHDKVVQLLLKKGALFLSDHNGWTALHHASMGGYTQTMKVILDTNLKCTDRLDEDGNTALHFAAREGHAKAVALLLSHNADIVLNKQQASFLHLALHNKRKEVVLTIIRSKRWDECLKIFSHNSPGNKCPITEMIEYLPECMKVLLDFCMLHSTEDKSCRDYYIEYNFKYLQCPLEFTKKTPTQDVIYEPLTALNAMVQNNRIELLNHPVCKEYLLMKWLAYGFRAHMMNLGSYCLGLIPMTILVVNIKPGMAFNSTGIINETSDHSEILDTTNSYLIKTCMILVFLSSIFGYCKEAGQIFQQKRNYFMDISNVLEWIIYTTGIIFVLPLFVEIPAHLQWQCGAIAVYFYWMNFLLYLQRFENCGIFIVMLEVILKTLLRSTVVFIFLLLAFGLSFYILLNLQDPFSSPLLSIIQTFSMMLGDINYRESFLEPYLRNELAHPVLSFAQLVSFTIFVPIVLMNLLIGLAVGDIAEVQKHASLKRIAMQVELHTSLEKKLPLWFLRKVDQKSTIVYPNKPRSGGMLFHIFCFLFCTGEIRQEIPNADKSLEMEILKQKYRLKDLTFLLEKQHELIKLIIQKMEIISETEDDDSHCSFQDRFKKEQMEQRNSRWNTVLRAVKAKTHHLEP

The assay addresses Human TRPA1 (Homo sapiens, UniProt O75762). The assay is described as follows: Assay 1: In vitro cellular testing of TRPA1 modulation (CHO-TREx, Fluo-3 calcium fluorescence, AITC agonist). Type of assay: cell-based. The conditions noted are these: CHO-TREx cells expressing human TRPA1; Fluo-3 fluorescence (FLIPR/Tetra); agonist 15 μM allyl isothiocyanate (AITC); 30 minute antagonist incubation. Also on record: expressed in transfected cells; host or cells: CHO-TREx cells (Invitrogen), vector pcDNA4/TO. The gist of the method:
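Tetracycline-induced CHO-TREx cells stably expressing human TRPA1, loaded with 4 μM Fluo-3 AM, preincubated 30 min with compound (serial dilution typically from 10 μM, three-fold steps) in HEPES saline pH 7.4. Fluorescence change over 3 min after 15 μM AITC; IC50 from Hill fit versus no-antagonist and 10 μM ruthenium red controls.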
With `O=C(NCc1cc(-c2ccc(C(F)(F)F)cc2)nc(-c2cccnc2)n1)[C@@H]1CCCN1S(=O)(=O)c1ccc(F)cc1` [Example 3, 1-(4-Fluoro-benzenesulfonyl)-pyrrolidine-2S-carboxylic acid [2-pyridin-3-yl-6-(4-trifluoromethyl-phenyl)-pyrimidin-4-ylmethyl]-amide], the IC50 worked out at 108 nM.

Consider `O=C(NCc1cc(-c2ccc(C(F)(F)F)cc2)nc(-c2ccccc2C(F)(F)F)n1)[C@@H]1CCCN1S(=O)(=O)c1ccc(F)cc1` [Example 6, 1-(4-Fluoro-benzenesulfonyl)-pyrrolidine-2S-carboxylic acid [2-(2-trifluoromethyl-phenyl)-6-(4-trifluoromethyl-phenyl)-pyrimidin-4-ylmethyl]-amide], for which the IC50 is 11 nM.

In the case of `O=C(NCc1cc(-c2ccc(OC(F)(F)F)cc2)ccn1)[C@@H]1C=CCN1S(=O)(=O)c1ccc(Cl)s1` [Example 146, 1-(5-Chloro-thiophene-2-sulfonyl)-2,5-dihydro-1H-pyrrole-2S-carboxylic acid [4-(4-trifluoromethoxy-phenyl)-pyridin-2-ylmethyl]-amide], the IC50 was found to be 52 nM.

On to `CC(C)(C)OC(=O)N[C@H]1CCN(c2nc(CNC(=O)[C@@H]3CCCN3S(=O)(=O)c3ccc(Cl)s3)cc(-c3ccc(C(F)(F)F)cc3)n2)C1` [Example 34, {1-[4-({[1-(5-Chloro-thiophene-2-sulfonyl)-pyrrolidine-2S-carbonyl]-amino}-methyl)-6-(4-trifluoromethyl-phenyl)-pyrimidin-2-yl]-pyrrolidin-3S-yl}-carbamic acid tert-butyl ester], for which the IC50 is 32 nM.

On to `CC1CCCN1c1nc(CNC(=O)[C@@H]2CCCN2S(=O)(=O)c2ccc(F)cc2)cc(-c2ccc(C(F)(F)F)cc2)n1` (stereo partly drawn) [Example 25, 1-(4-Fluoro-benzenesulfonyl)-pyrrolidine-2S-carboxylic acid [2-(2-methyl-pyrrolidin-1-yl)-6-(4-trifluoromethyl-phenyl)-pyrimidin-4-ylmethyl]-amide], for which the IC50 amounted to 63 nM.

As for `O=C(NCc1cccc(-c2ccc(C(F)(F)F)cc2)c1)[C@@H]1C=CCN1S(=O)(=O)c1ccc(F)cc1` [Example 111, 1-(4-Fluorobenzenesulfonyl)-2,5-dihydro-1H-pyrrole-2S-carboxylic acid (4′-trifluoromethylbiphenyl-3-ylmethyl)-amide], the IC50 came to 14 nM.

Turning to `O=C(NCc1cc(-c2ccc(C(F)(F)F)cc2)ncn1)[C@@H]1CCCN1S(=O)(=O)c1ccc(Cl)nc1` [Example 174, 1-(6-Chloropyridine-3-sulfonyl)-pyrrolidine-2S-carboxylic acid [6-(4-trifluoromethylphenyl)-pyrimidin-4-ylmethyl]-amide], the IC50 came out at 95 nM.

Turning to `CN(C)[C@@H]1CCN(c2nc(CNC(=O)[C@@H]3CCCN3S(=O)(=O)c3ccc(Cl)s3)cc(-c3ccc(C(F)(F)F)cc3)n2)C1` [Example 32, 1-(5-Chloro-thiophene-2-sulfonyl)-pyrrolidine-2S-carboxylic acid [2-(3R-dimethylamino-pyrrolidin-1-yl)-6-(4-trifluoromethyl-phenyl)-pyrimidin-4-ylmethyl]-amide], the IC50 is 1020 nM.

For the compound `CC(Nc1cc(CNC(=O)[C@@H]2C=CCN2S(=O)(=O)c2ccc(F)cc2)cc(-c2ccc(C(F)(F)F)cc2)n1)c1ccncc1` (stereo partly drawn) [Example 412, (2S)-1-[(4-Fluorophenyl)sulfonyl]-N-({2-[(1-pyridin-4-ylethyl)amino]-6-[4-(trifluoromethyl)phenyl]pyridin-4-yl}methyl)-2,5-dihydro-1H-pyrrole-2-carboxamide], the IC50 was found to be 1270 nM.

With `N#Cc1ccc(S(=O)(=O)N2CCC[C@H]2C(=O)NCc2cc(-c3ccc(C(F)(F)F)cc3)ncn2)cc1` [Example 159, 1-(4-Cyanobenzenesulfonyl)-pyrrolidine-2S-carboxylic acid [6-(4-trifluoromethylphenyl)-pyrimidin-4-ylmethyl]-amide], the IC50 amounted to 1090 nM.

Consider `CC(C)(O)CNc1nc(CNC(=O)[C@@H]2CCCN2S(=O)(=O)c2ccc(Cl)s2)cc(-c2ccc(C(F)(F)F)cc2)n1` [Example 46, 1-(5-Chloro-thiophene-2-sulfonyl)-pyrrolidine-2S-carboxylic acid [2-(2-hydroxy-2-methyl-propylamino)-6-(4-trifluoromethyl-phenyl)-pyrimidin-4-ylmethyl]-amide], for which the IC50 came to 747 nM.

As for `O=C(NCc1cccc(-c2ccc(Cl)cn2)c1)[C@@H]1CCCN1S(=O)(=O)c1ccc(F)cc1` [Example 91, 1-(4-Fluorobenzenesulfonyl)-pyrrolidine-2S-carboxylic acid 3-(5-chloropyridin-2-yl)-benzylamide], the IC50 was 175 nM.

Turning to `O=C(NCc1cc(-c2ccc(C(F)(F)F)cc2)nc(N2CCCCC2)c1)[C@@H]1CCCN1S(=O)(=O)c1ccc(Cl)s1` [Example 319, 1-(5-Chloro-thiophene-2-sulfonyl)-pyrrolidine-S2-carboxylic acid [6′-(4-trifluoromethyl-phenyl)-3,4,5,6-tetrahydro-2H-[1,2′]bipyridinyl-4′-ylmethyl]-amide], the IC50 worked out at 21 nM.

For `CN(C)c1ccc(-c2cccc(CNC(=O)[C@@H]3CCCN3S(=O)(=O)c3ccc(F)cc3)c2)cn1` [Example 104, 1-(4-Fluorobenzenesulfonyl)-pyrrolidine-2S-carboxylic acid 3-(6-dimethylaminopyridin-3-yl)-benzylamide], the IC50 is 460 nM.

In the case of `CN1CCC(CNc2nc(CNC(=O)[C@@H]3CCCN3S(=O)(=O)c3ccc(F)cc3)cc(-c3ccc(C(F)(F)F)cc3)n2)C1` (stereo partly drawn) [Example 12, 1-(4-Fluoro-benzenesulfonyl)-pyrrolidine-2S-carboxylic acid [2-[(1-methyl-pyrrolidin-3-ylmethyl)-amino]-6-(4-trifluoromethyl-phenyl)-pyrimidin-4-ylmethyl]-amide], the IC50 was found to be 1090 nM.

As for `O=C(NCc1cc(NCc2ccccc2)nc(-c2ccc(C(F)(F)F)cc2)c1)[C@@H]1CCCN1S(=O)(=O)c1ccc(Cl)s1` [Example 323, N-({2-(Benzylamino)-6-[4-(trifluoromethyl)phenyl]pyridin-4-yl}methyl)-1-[(5-chlorothiophen-2-yl)sulfonyl]-L-prolinamide], the IC50 was 510 nM.

`CC(O)CNc1nc(CNC(=O)[C@@H]2CCCN2S(=O)(=O)c2ccc(Cl)s2)cc(-c2ccc(C(F)(F)F)cc2)n1` (stereo partly drawn) [Example 45, 1-(5-Chloro-thiophene-2-sulfonyl)-pyrrolidine-2S-carboxylic acid [2-(2-hydroxy-propylamino)-6-(4-trifluoromethyl-phenyl)-pyrimidin-4-ylmethyl]-amide]: the IC50 is 2040 nM.

Consider `O=C(NCc1cccc(-c2ccc(OCC(F)(F)F)cc2)c1)[C@@H]1CCCN1S(=O)(=O)c1ccc(F)cc1` [Example 81, 1-(4-Fluorobenzenesulfonyl)-pyrrolidine-2S-carboxylic acid [4′-(2,2,2-trifluoroethoxy)-biphenyl-3-ylmethyl]-amide], for which the IC50 amounted to 93 nM.

Regarding `O=C(NCc1cc(NCc2cccnc2)nc(-c2ccc(C(F)(F)F)cc2)c1)[C@@H]1C=CCN1S(=O)(=O)c1ccc(F)cc1` [Example 346, (2S)-1-[(4-Fluorophenyl)sulfonyl]-N-({2-[(pyridin-3-ylmethyl)amino]-6-[4-(trifluoromethyl)phenyl]pyridin-4-yl}methyl)-2,5-dihydro-1H-pyrrole-2-carboxamide], the IC50 was over 10000 nM.

In the case of `CC(Nc1cc(CNC(=O)[C@@H]2CC(F)(F)CN2S(=O)(=O)c2ccc(F)cc2)cc(-c2ccc(C(F)(F)F)cc2)n1)c1ccccn1` (stereo partly drawn) [Example 416, 4,4-Difluoro-1-[(4-fluorophenyl)sulfonyl]-N-({2-[(1-pyridin-2-ylethyl)amino]-6-[4-(trifluoromethyl)phenyl]pyridin-4-yl}methyl)-L-prolinamide], the IC50 came to 1060 nM.

For `CCN1CCN(c2nc(CNC(=O)[C@@H]3CCCN3S(=O)(=O)c3ccc(F)cc3)cc(-c3ccc(C(F)(F)F)cc3)n2)CC1` [Example 15, 1-(4-Fluoro-benzenesulfonyl)-pyrrolidine-2S-carboxylic acid [2-(4-ethyl-piperain-1-yl)-6-(4-trifluoromethyl-phenyl)-pyrimidin-4-ylmethyl]-amide], the IC50 is 418 nM.

For `O=C(NCc1cccc(-c2ccc3ncccc3c2)c1)[C@@H]1CCCN1S(=O)(=O)c1ccc(F)cc1` [Example 106, 1-(4-Fluoro-benzenesulfonyl)-pyrrolidine-2S-carboxylic acid 3-quinolin-6-yl-benzylamide], the IC50 amounted to 594 nM.

With `CN1CCC(CN2CCN(c3nc(CNC(=O)[C@@H]4CCCN4S(=O)(=O)c4ccc(F)cc4)cc(-c4ccc(C(F)(F)F)cc4)n3)CC2)CC1` [Example 20, 1-(4-Fluoro-benzenesulfonyl)-pyrrolidine-2S-carboxylic acid [2-[4-(1-methyl-piperidin-4-ylmethyl)-piperazin-1-yl]-6-(4-trifluoromethyl-phenyl)-pyrimidin-4-ylmethyl]-amide], the IC50 is 2050 nM.

As to `CC(Nc1cc(CNC(=O)[C@@H]2CC(F)(F)CN2S(=O)(=O)c2ccc(F)cc2)cc(-c2ccc(C(F)(F)F)cc2)n1)c1cccnc1` (stereo partly drawn) [Example 398, 4,4-Difluoro-1-[(4-fluorophenyl)sulfonyl]-N-({2-[(1-pyridin-3-ylethyl)amino]-6-[4-(trifluoromethyl)phenyl]pyridin-4-yl}methyl)-L-prolinamide], the IC50 is 7090 nM.

`O=C(NCc1cc(-c2ccc(C(F)(F)F)cc2)nc(N2CCN(Cc3cccnc3)CC2)c1)[C@@H]1C=CCN1S(=O)(=O)c1ccc(F)cc1` [Example 365, (2S)-1-[(4-Fluorophenyl)sulfonyl]-N-({2-[4-(pyridin-3-ylmethyl)piperazin-1-yl]-6-[4-(trifluoromethyl)phenyl]pyridin-4-yl}methyl)-2,5-dihydro-1H-pyrrole-2-carboxamide]: the IC50 worked out at 1690 nM.
